Measurements from patent US11312723B2, “Pyranopyrazole and pyrazolopyridine immunomodulators for treatment of autoimmune diseases” (The Rockefeller University, priority 2017, dated 2022).

target: Human FXIIa (Homo sapiens (Human), UniProt P00748); assay: Factor XIIa (FXIIa) inhibitory activity, chromogenic substrate (Pefachrome XIIa) cleavage; format: biochemical; settings: 10 min pre-incubation, Pefachrome XIIa 400 μM
Procedure: Factor XIIa (FXIIa) Inhibitory Activity:
In a 96-well clear bottom plate, 80 μl of assay buffer was added to each well. Assay buffer consists of 0.5× Hank's Balanced Salt Solution (Invitrogen), buffered with 25 mM HEPES pH 7.4 (Invitrogen) and 0.5× Tris-buffered saline with Tween-20 0.05% (Santa Cruz Biotechnology). Test compounds were first dissolved in DMSO (Sigma) and then 4 μl were added to test wells containing assay buffer. Serial dilutions using an automated multi-channel pipette were used to generate a concentration range of approximately 1-100 μM. Human FXIIa (Enzyme Research Labs) was diluted in assay buffer to a final concentration of 12.5 nM. 80 μl of this enzyme solution was added to the assay wells. The enzyme/compound mixtures were incubated for 10 minutes at room temperature. Chromogenic substrate (Pefachrome XIIa; Enzyme Research Labs) was added to assay wells at a final concentration of 400 μM. The assay plate was spun for 1 minute at 1500 g and then read at 37° C. in a SpectraMax M2 plate reader (λ=405 nm). Activity was quantified as the rate of change in absorbance, which corresponds to the rate of substrate cleavage. IC50 values were determined as the concentration of inhibitor that produced 50% of the rate of change of control wells without any inhibitor. For compounds with activity <1 μM, the assay was repeated with a lower concentration range, typically from 10-1000 nM.

Human FXIIa, sequence (P00748 373-615): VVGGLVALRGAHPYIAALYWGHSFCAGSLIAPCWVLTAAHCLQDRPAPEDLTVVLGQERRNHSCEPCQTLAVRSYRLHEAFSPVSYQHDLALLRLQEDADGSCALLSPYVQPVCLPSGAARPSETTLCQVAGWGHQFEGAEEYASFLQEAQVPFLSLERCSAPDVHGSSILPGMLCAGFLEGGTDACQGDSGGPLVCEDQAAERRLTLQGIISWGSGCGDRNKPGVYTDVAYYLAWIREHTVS
Human FXIIa, sequence (P00748 20-372 partner): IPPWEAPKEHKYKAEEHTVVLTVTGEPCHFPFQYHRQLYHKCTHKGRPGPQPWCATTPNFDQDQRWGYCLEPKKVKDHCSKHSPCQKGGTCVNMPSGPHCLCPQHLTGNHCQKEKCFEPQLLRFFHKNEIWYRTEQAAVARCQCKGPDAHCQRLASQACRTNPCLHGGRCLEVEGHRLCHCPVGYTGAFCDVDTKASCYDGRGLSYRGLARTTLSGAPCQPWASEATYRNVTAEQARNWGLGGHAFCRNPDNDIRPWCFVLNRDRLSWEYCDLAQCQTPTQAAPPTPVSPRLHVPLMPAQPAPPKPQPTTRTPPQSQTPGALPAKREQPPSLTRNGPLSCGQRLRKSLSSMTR

**Q.** Which IC50 does the source give for `Cc1cccc2c1NCC[C@H]2C(=O)n1nc2c(c1N)CCOC2` (single isomer, unassigned) [Example 199, (R*)-(3-amino-4,5-dihydropyrano[3,4-c]pyrazol-2(7H)-yl)(8-methyl-1,2,3,4-tetrahydro-quinolin-4-yl)methanone] here?
**A.** 80 µM

**Q.** With `Cc1cccc2c1NCCC2C(=O)n1nc(N)c2c1CCOC2` (stereo not drawn) [Example 189, (3-amino-6,7-dihydropyrano[4,3-c]pyrazol-1(4H)-yl)(8-methyl-1,2,3,4-tetrahydro-quinolin-4-yl)methanone] as the molecule, how does the IC50 read?
**A.** 40 µM

**Q.** With `CS(=O)(=O)N1CCc2c(nn(C(=O)[C@@H]3CCNc4ccccc43)c2N)C1` (single isomer, unassigned) [Example 134, (R*)-(3-amino-6-(methylsulfonyl)-4,5,6,7-tetrahydro-pyrazolo[3,4-c]pyridin-2-yl)(1,2,3,4-tetrahydro-quinolin-4-yl)methanone] as the molecule, how does the IC50 read?
**A.** 28 µM

**Q.** How did the IC50 turn out when `CS(=O)(=O)N1CCc2c(nn(C(=O)C3CCCc4[nH]c(Cl)cc43)c2N)C1` (single isomer, unassigned) [Example 132, (R*)-(3-amino-6-(methylsulfonyl)-4,5,6,7-tetrahydro-pyrazolo[3,4-c]pyridin-2-yl)(2-chloro-4,5,6,7-tetrahydro-1H-indol-4-yl)methanone] was run?
**A.** 3 µM

**Q.** How did the IC50 turn out when `CS(=O)(=O)N1CCc2c(nn(C(=O)C3CC(=O)Nc4ccc(F)cc43)c2N)C1` (stereo not drawn) [Example 43, 4-(3-amino-6-(methylsulfonyl)-4,5,6,7-tetrahydro-2H-pyrazolo[3,4-c]pyridine-2-carbonyl)-6-fluoro-3,4-dihydroquinolin-2(1H)-one] was run?
**A.** 4 µM

**Q.** With `CCc1cc(C)c2c(c1)C(C(=O)n1nc3c(c1N)CCN(S(C)(=O)=O)C3)CCN2` (single isomer, unassigned) [Example 70, (3-amino-6-(methylsulfonyl)-4,5,6,7-tetrahydropyrazolo[3,4-c]pyridin-2-yl)((R*)-6-ethyl-8-methyl-1,2,3,4-tetrahydroquinolin-4-yl)methanone] as the molecule, how does the IC50 read?
**A.** 5 µM

**Q.** For `Cc1cc(F)cc2c1NCC[C@@H]2C(=O)n1nc2c(c1N)COCC2` (single isomer, unassigned) [Example 193, (S*)-(3-amino-6,7-dihydropyrano[4,3-c]pyrazol-2(4H)-yl)(6-fluoro-8-methyl-1,2,3,4-tetrahydro-quinolin-4-yl)methanone], which IC50 is on record?
**A.** 0.04 µM

**Q.** For `CS(=O)(=O)N1CCc2c(N)nn(C(=O)C3CCNc4ccc(F)cc43)c2C1` (stereo not drawn) [Example 17, (3-amino-6-(methylsulfonyl)-4,5,6,7-tetrahydropyrazolo[3,4-c]pyridin-1-yl)(6-fluoro-1,2,3,4-tetrahydroquinolin-4-yl)methanone], which IC50 is on record?
**A.** 30 µM

**Q.** How did the IC50 turn out when `Nc1c2c(nn1C(=O)[C@@H]1CCNc3ccc(F)cc31)COCC2` (single isomer, unassigned) [Example 197, (R*)-(3-amino-4,5-dihydropyrano[3,4-c]pyrazol-2(7H)-yl)(6-fluoro-1,2,3,4-tetrahydro-quinolin-4-yl)methanone] was run?
**A.** 40 µM

**Q.** With `Nc1nn(C(=O)C2CCNc3ccc(F)cc32)c2c1CCN(S(=O)(=O)c1ccncc1)C2` (stereo not drawn) [Example 156, (3-amino-6-(pyridin-4-ylsulfonyl)-4,5,6,7-tetrahydro-pyrazolo[3,4-c]pyridin-1-yl)(6-fluoro-1,2,3,4-tetrahydro-quinolin-4-yl)methanone] as the molecule, how does the IC50 read?
**A.** 14 µM

**Q.** How did the IC50 turn out when `Nc1nn(C(=O)C2CCNc3ccc(F)cc32)c2c1CCN(c1ccccc1)C2` (stereo not drawn) [Example 29, (3-amino-6-phenyl-4,5,6,7-tetrahydropyrazolo[3,4-c]pyridin-1-yl)(6-fluoro-1,2,3,4-tetrahydroquinolin-4-yl)methanone] was run?
**A.** > 60 µM

**Q.** Which IC50 does the source give for `CCc1ccc2c(c1)C(C(=O)n1nc3c(c1N)CCN(S(C)(=O)=O)C3)CCN2` (single isomer, unassigned) [Example 33, (R*)-(3-amino-6-(methylsulfonyl)-4,5,6,7-tetrahydropyrazolo[3,4-c]pyridin-2-yl)(6-ethyl-1,2,3,4-tetrahydroquinolin-4-yl)methanone] here?
**A.** 10 µM
